# Measurements published in US20130288275A1, “COMPOSITIONS AND METHODS FOR DETECTING ACETYLATED SUMO PROTEINS” (Georgetown University, priority 2010, published 2013).
# Tests used:
# SUMO-1 acetylation = assay: Modulation of SUMO-1 acetylation in H1299 cells expressing SUMO-1; format: cell-based, human; conditions: 500 nM TSA or 1 μM etoposide, versus untreated cells
# Protocol: FIG. 3. SUMO-1 is acetylated when bound to its substrates. A. A polyclonal antibody raised against a SUMO-1 peptide SEIHF{Lys-Ac}[…] acetylated at K37 was raised and purified by peptide affinity purification. The specificity of this antibody was tested first in an in vitro acetylation reaction similar to that described in FIG. 2A. SUMO-1 was incubated in the presence (lane 3) or absence (lane 2) of CBP and cold Acetyl-coenzyme A. Lane 1 contains the acetylation reaction with CBP alone without SUMO-1. Samples were subjected to SDS electrophoresis, blotted on a PDF membrane, and probed with Ac-K37-Ab in immunoblot (upper panel). After chemi-luminescence, the membrane was stained with Comassie Brilliant Blue to reveal SUMO-1 (lower panel). B. Acetylation of SUMO-1 in vivo. Control H1299 cells (lanes 1 and 4) or H1299 expressing naïve SUMO-1 (lanes 2 and 5) or a SUMO-1 harboring lysine to arginine replacements at position K37-K39 and K45-K46-K48 (SUMOK37-K48R, lanes 3 and 6) were induced with tetracycline. […] Following electrophoresis and transfer, membranes were immuno-blotted with the Ac-K37-Ab (left panel, lanes 1-3). Forty micrograms of total cell extracts were probed with the anti-Flag antibody in direct immuno-blot (right panel, lanes 4-6). The position of free SUMO-1 and of SUMO-1 conjugated to RanGap is indicated by arrows. C. Modulation of SUMO-1 acetylation by deacetylases and by DNA damaging agents. H1299 cells expressing SUMO-1 were left untreated (lanes 1 and 5) or they were treated with 500 nM TSA (lanes 2 and 6), with 1 μM etoposide (lanes 3 and 7), or with 100 mM H2O2 (lanes 4 and 8). Cell extracts were prepared in RIPA buffer, immuno-precipitated with the anti-Flag antibody and processed in immuno-blot with the Ac-K37-Ab as described in B (lanes 1-4). Total cell extracts are shown in the right panel. The position of SUMO-1, RanGaP and of SUMO-1 conjugates is indicated. Full arrows indicate non specific reactivity of the Ac-K37-Ab with heavy and light chains of the anti-Flag immuno-precipitation.
# Unless otherwise indicated, cell extracts were prepared in RIPA buffer (0.1% SDS; 50 mM Tris.Cl, pH 6.8; 150 mM NaCl; 0.5% Nonidet P-40; 2 mM EDTA) supplemented with protease a protease inhibitor mixture, with TSA (500 μM) and with […] NEM as an inhibitor of de-sumoylation. Treatment with etoposide was performed at […] overnight. When probed with the anti-SUMO or anti-acetyl-K37 antibody (37-1Ab) in direct immuno-blot, membranes where treated with 6 M Guanidine for 30 minutes, followed by incubation in blocking solution. The Ac-K37 (37-1Ab) antibody was used to a 1:500 dilution in direct immuno-blots on in vitro acetylation reactions (i.e., FIG. 3A) and to a 1:250 dilution for the experiments in cells and in murine tumors. […]
# CBP [1] = target: T1, CBP (Homo sapiens, UniProt Q92793); assay: Peptide competition of CBP-mediated acetylation of full-length SUMO-1; format: biochemical; conditions: cold acetylated peptide in 10 fold excess relatively to full length SUMO-1; 14C-acetyl CoA
# T1 construct: purified SUMO-1 protein and the catalytic domain of several acetyltransferases, specifically of CBP and PCAF; purchased Biomol
# Protocol: (§1) FIG. 2. Identification of an acetylated domain of SUMO-1 conserved among SUMO family members. A. Purified SUMO1 was subjected to an in vitro acetylation reaction in the absence (lane 2) or presence (lane 3) of CBP, and of 14C-Acetyl-Coenzyme A. Lane 1 contain CBP in the absence of SUMO-1. Reactions were assembled in 30 μl volume, and developed with autoradiography. 1/20 of the reaction mixtures were run independently and proteins were visualized with Coomassie Brilliant Blue staining (lanes 4-6). The position of SUMO-1 and CBP is indicated by arrows. B. Peptide competition experiments. The following acetylated peptides were used: K25-K27:YIK(Ac)LK(Ac)VIG (lane 2); peptide K37-K39:HFK(Ac)VK(Ac)MTT (lane 3); peptide K45-K46-K48:HLK(Ac)K(Ac)LK(Ac)ES (lane 4). Lane 1 contains the acetylation reaction with a control peptide ([…]) and lane 5 contains the acetylation reaction without peptide(s). Polypeptides were incubated in a 10 fold excess relatively to full length SUMO-1. C. Identification of lysines residues acetylated in vitro and in vivo by mass spectrometry and alignment of acetylated residues in SUMO-1 with SUMO-2 and SUMO-3. Acetylated lysines of SUMO-1 are indicated by arrows and bolded in red, and conserved residues are shown. Based on the results of Mass Spectrometry we name the domain comprised between amino acid K37 to K48 SUMO-1 Acetylated Domain, or SAD. D. Acetylation of SUMO family members. Acetylation reactions were carried out as described in A. SUMO-1 (lanes 2, 5) SUMO-2 (lanes 3, 6), or SUMO-3 (lanes 4, 7) were subjected to an acetylation reaction in absence (lanes 2-4) or presence (lanes 5-7; indicated by +) of CBP. Lane 1 contains an acetylation reaction with CBP without SUMO proteins.
# Acetylation reactions were typically assembled in a 30 μl volume, containing HAT buffer (1×25 mM Tris-HCl ph 7.9; 50 mM NaCl, 1 mM DTT), 6 μl of ^14C-Acetyl-Coenzyme A (Amersham) or cold Acetyl-Coenzyme A (lithium salt, from Roche), 1-2 μg CBP, 0.5-1 μg of SUMO proteins. […]
# CBP [2] = target: T1, CBP; assay: In vitro acetylation reaction with CBP; format: biochemical; conditions: purified protein, 14C-acetyl CoA, autoradiography
# Protocol: as §1, with “proteins. […]” for “proteins.”
# From the mass spectrometric analysis performed on the in vitro reactions, it was determined that CBP was able to acetylate the same residues that were found acetylated in vivo, specifically K37, K39 and K48. […]
# PCAF = target: T2, PCAF (Homo sapiens, UniProt Q92831); assay: In vitro acetylation reaction with PCAF; format: biochemical; conditions: purified protein, 14C-acetyl CoA
# T2 construct: purified SUMO-1 protein and the catalytic domain of several acetyltransferases, specifically of CBP and PCAF
# Protocol: Acetylation reactions were typically assembled in a 30 μl volume, containing HAT buffer (1×25 mM Tris-HCl ph 7.9; 50 mM NaCl, 1 mM DTT), 6 μl of ^14C-Acetyl-Coenzyme A (Amersham) or cold Acetyl-Coenzyme A (lithium salt, from Roche), 1-2 μg CBP, 0.5-1 μg of SUMO proteins.
# The discovery of such similarities implied that this SUMO-1 domain might functionally mimic the acetylated state of similar domains of transcription factors. Two approaches were used to determine if the identified SUMO-1 domain was acetylated. First, acetylation assays were performed in vitro using purified SUMO-1 protein and the catalytic domain of several acetyltransferases, specifically of CBP and PCAF, in the presence of 14C-acetyl CoA. […] To preliminarily map the site(s) of acetylation, we tested the ability of cold synthetic polypeptides corresponding to specific SUMO-1 regions, to inhibit CBP-mediated acetylation of the full-length protein in a reaction containing 14C-acetyl CoA.
# H1299 cells = assay: Cell cycle analysis by flow cytometry; format: cell-based, human; conditions: H1299 cells infected with adenovirus expressing p53, 72 hours after infection
# Protocol: FIG. 5. […] 72 hours after infection, cells were harvested and their cell cycle profile was analyzed (see materials and methods). B-C.
# Flow cytometry was performed as described previously by Knights, C. D., et al. J. Cell Biol. 173(4):533-544 (2006).
# T1 sequence (Q92793 1323-1700 limits assumed): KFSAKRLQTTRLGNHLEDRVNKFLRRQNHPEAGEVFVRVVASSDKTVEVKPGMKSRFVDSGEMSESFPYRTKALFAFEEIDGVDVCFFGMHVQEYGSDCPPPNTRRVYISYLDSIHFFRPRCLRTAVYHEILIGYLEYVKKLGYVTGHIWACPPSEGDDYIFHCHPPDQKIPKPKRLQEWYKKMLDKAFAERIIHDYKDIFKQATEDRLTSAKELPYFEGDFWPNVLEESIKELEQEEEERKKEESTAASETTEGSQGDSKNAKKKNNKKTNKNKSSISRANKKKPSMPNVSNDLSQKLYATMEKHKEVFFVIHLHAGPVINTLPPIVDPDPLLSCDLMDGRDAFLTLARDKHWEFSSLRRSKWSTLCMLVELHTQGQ
# T2 sequence (Q92831 503-651 limits assumed, species assumed): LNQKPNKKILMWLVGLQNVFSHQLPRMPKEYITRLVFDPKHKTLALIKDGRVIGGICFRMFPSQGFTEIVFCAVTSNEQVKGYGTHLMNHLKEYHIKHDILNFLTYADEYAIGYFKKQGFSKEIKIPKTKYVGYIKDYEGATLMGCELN
Compound,inhibition of CBP-mediated acetylation of full-length SUMO-1 (CBP [1]),acetylation by CBP (CBP [2]),also measured
COc1cc([C@@H]2c3cc4c(cc3[C@@H](O[C@@H]3O[C@@H]5CO[C@@H](C)O[C@H]5[C@H](O)[C@H]3O)[C@H]3COC(=O)[C@H]23)OCO4)cc(OC)c1O [etoposide],–,–,acetylation signal on free SUMO-1 (SUMO-1 acetylation): stronger than that seen in untreated cells; levels of acetylation on RanGAP (SUMO-1 acetylation): only modestly influenced
HLK(Ac)K(Ac)LK(Ac)ES [K45-K46-K48],completely blocked acetylation,–,–
"SUMO-1: small ubiquitin-like modifier protein, SEQ ID NO:1; purified from Biomol or Flag-tagged expressed in H1299 cells",–,efficiently acetylated,acetylation by PCAF (PCAF): not by PCAF; apoptotic cells (H1299 cells): 15%
CC(/C=C/C(=O)NO)=C\[C@@H](C)C(=O)c1ccc(N(C)C)cc1 [TSA],–,–,acetylation signal on free SUMO-1 (SUMO-1 acetylation): stronger than that seen in untreated cells; levels of acetylation on RanGAP (SUMO-1 acetylation): only modestly influenced
HFK(Ac)VK(Ac)MTT [K37-K39],completely blocked acetylation,–,–
"SUMO-3: purified SUMO-3 from Biomol, SEQ ID NO:3",–,robustly acetylated,–
"SUMO-2: purified SUMO-2 from Biomol, SEQ ID NO:2",–,robustly acetylated,–
YIK(Ac)LK(Ac)VIG [K25 and K26],only weakly abrogated,–,–
